“Also recorded” adds a separate entry of the source.
How the values were obtained:
[1] = Phase 1 study, safety of single agent dose escalation; assay type: in vivo; settings: 200 mg, 400 mg, 800 mg, and 1200 mg QD, monotherapy, human patients
Source text: This is a first-in-human (FIH), open-label, multicenter, dose-escalation and expansion study to evaluate the safety, tolerability, PK, pharmacodynamics, and preliminary antitumor activity of Compound A administered orally (PO). There will be two arms: a single agent Compound A arm and a combination arm of Compound A with nivolumab in patients with advanced solid tumors and urothelial carcinoma. The Safety Review Committee (SRC) comprised of the enrolling study Investigators and the Sponsor will use the mTPI-2 design (Guo, 2017) and assess all safety data available to guide dose escalation and de-escalation decisions and subject enrollment for both arms. To assess evidence of preliminary antitumor activity in patients with urothelial carcinoma, a Simon 2-stage design (Simon, 1989) is used for both arms.
A baseline Screening period is followed by a by a Single-dose Run-in period (up to 7 days) to assess the PK of Compound A without food. The Single Agent treatment arm comprises daily oral administration of Compound A in the fed state. […]
Toxicity is evaluated according to National Cancer Institute Common Terminology Criteria for Adverse Events (AEs) (NCI-CTCAE) v5.0. […]

[2] = target: T1, AHR (Mus musculus, UniProt P30561); test: Pharmacodynamics: CYP1A1 mRNA in murine liver and spleen after VAG539; assay type: in vivo
T1 sequence (P30561 10-805): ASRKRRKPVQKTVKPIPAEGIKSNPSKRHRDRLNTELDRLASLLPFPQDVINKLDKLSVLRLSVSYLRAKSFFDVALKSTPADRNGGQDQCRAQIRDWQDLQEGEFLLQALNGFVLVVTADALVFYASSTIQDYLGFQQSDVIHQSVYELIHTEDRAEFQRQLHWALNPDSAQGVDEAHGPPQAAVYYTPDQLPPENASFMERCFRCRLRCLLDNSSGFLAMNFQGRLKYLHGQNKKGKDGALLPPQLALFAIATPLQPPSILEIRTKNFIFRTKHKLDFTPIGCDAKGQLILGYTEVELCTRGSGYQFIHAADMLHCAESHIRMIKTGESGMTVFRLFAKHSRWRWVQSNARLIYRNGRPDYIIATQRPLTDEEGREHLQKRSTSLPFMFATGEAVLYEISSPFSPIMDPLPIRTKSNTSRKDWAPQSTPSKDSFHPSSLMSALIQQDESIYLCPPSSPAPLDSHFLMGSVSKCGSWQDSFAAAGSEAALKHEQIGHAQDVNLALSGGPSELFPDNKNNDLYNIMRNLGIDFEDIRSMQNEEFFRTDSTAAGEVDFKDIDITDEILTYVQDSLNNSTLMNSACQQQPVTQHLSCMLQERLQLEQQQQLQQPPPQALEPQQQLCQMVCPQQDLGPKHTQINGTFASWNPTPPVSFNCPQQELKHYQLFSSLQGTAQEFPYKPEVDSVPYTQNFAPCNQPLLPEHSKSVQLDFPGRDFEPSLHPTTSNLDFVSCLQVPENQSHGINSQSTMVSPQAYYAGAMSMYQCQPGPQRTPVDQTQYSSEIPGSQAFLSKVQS
Description: Mice were sacrificed at 4 and 10 hours postdose and RNA was extracted and gene expression of CYP1A1 and the housekeeping gene mouse glyceraldehyde 3-phosphate dehydrogenase were quantified. CYP1A1 mRNA expression levels for each dose group for liver and spleen tissues were normalized to the control group.

In the case of `CC(C)c1cnn2c(N[C@@H]3CCc4[nH]c5ccccc5c4C3)nc(-c3cncc(F)c3)nc12` [Compound A, (R)—N-(2-(5-fluoropyridin-3-yl)-8-isopropylpyrazolo[1,5-a][1,3,5]triazin-4-yl)-2,3,4,9-tetrahydro-1H-carbazol-3-amine], the “serious adverse events (SAEs)” value [1] is reported as “no serious adverse events; also recorded: without any drug-related serious adverse events”, the “inhibition of CYP1A1 mRNA induction, spleen” value ([2]; 25 mg/kg Compound A oral with VAG539, at 4 hours) is reported as “complete inhibition” and the “inhibition of CYP1A1 mRNA increases induced by VAG539, liver” value ([2]; 25 mg/kg Compound A oral, coadministered with 30 mg/kg VAG539) is reported as “Complete inhibition”.

From patent US20240148740A1, “COMBINATION OF AN AHR INHIBITOR WITH A PDX INHIBITOR OR DOXORUBICINE” (Ikena Oncology, Inc., priority 2020, published 2024)
